In US4847302A, “Use of certain compounds in livestock food as growth promotants for better feed utilization and improved carcass composition” (Merck & Co., Inc., priority 1988, dated 1989):
Like-named read-outs stand apart in the source and are kept apart here.

Columns and labels:
[1] = In vivo testing in rats: growth, feed conversion and carcass composition; design: species or system rat (male Charles River CD); conditions: in diet, dose equivalent to 20 ppm clenbuterol (clenbuterol: 10)
Excerpt: Eighty intact, male Charles River CD rats, 75-90 g, were housed and maintained on rat chow and water ad libitum. After four days acclimation ten rats per group were randomized by weight to treatment and pen. Compounds to be tested were premixed and added to ground rat chow using doses equivalent to 20 ppm of clenbuterol on a molecular weight basis. It had previously been determined 10 ppm of clenbuterol was the minimum dose needed to give maximum improvements in gain and feed conversion. Therefore, the results of any compound tested should cause responses similar to clenbuterol if the compound has half or more the activity of clenbuterol.

[2] = Growth promoting activity / feed utilization in livestock (general statements); format: in vivo
[3] = tested on: Isolated Ovine Adipocytes; assay: Stimulation of lipolysis (glycerol production) in isolated ovine adipocytes; format: cell-based, sheep; conditions: for activation at 0.01 µM / activation at 0.05 µM: Ovis aries, Adipocyte, 2 h
Protocol: (§1) Fat was collected from freshly killed animals as follows: epididymal and perirenal fat from 150 to 200 g male rates; perirenal fat from 20 to 25 kg whether lambs, and perirenal and omental fat from 35 to 50 kg gilts. Immediately after collection, fat was placed in a siliconized beaker (all glassware was siliconized) containing Krebs-Ringer bicarbonate solution (KRB; pH 7.4) at 37° C. Fat was transferred to a clean beaker and finely chopped with scissors. Chopped fat was then used as such (whole adipose preparation) or treated with collagenase (isolated adipocytes).
(§2) Chopped fat was placed in a shaker containing 70 ml cell dispersion medium (CDM; 5 mM glucose, 0.1% collagenase, 4% bovine serum albumin (BSA), in KRB) and incubated at 37° C. for 1 hour with gentle shaking. Fat was then filtered to remove clumps and washed 4 times with washing medium (WM; 2.5 mM glucose, 1% BSA, in KRB) and 1 time with final suspension medium (FSM; 2.5 mM glucose, 2% essentially fatty acid free BSA, in KRB). Isolated adipocytes were then resuspended in the required amount of FSM (1 ml/flask, 3 flasks/treatment).
(§3) Whole adipose tissue from the rat (0.3 ml) or isolated adipocytes from sheep or swine (1 ml) were placed in plastic scintillation vials containing FSM (1.7 or 1 ml, respectively) and test compounds, and incubated at 37° C. for 2 hours. […] Isoproterenol, at the same concentrations, was used as a positive control. After incubation, media was removed and assayed for glycerol by a fluorometric modification of the method of Wieland (1974. Glycerol UV-method. pp. 1404. In: Bergmeyer (Ed.) Methods of Enzymatic Analysis. Verlag Chemie Weinham, Academic Press, New York).

[4] = tested on: Isolated Chicken Hepatocytes; assay: Inhibition of lipogenesis (14C acetate incorporation) in isolated chicken hepatocytes; format: cell-based; conditions: for inhibition at 0.01 µM / inhibition at 0.05 µM / inhibition at 0.25 µM: Gallus gallus, Hepatocyte, 2 h, Test 1, read-out: percent change compared to control, 14C acetate incorporation in fatty acids; for antilipogenic activity relative to clenbuterol / antilipogenic activity relative to isoproterenol: chicken hepatocytes
Protocol: Determination of anti-lipogenic activity in hepatocytes
Hepatocytes were isolated from chicken liver using the procedure for adipocytes and incubated for 2 hours at 37° C. in the presence of ^14 C acetate and test compounds. […] Isoproterenol, at the same concentrations, was used as a positive control. After incubation, 8 ml Doles reagent (isopropanol:hexane:H2 SO4, 40:10:1) was added and incubation vials were shaken at room temperature for 30 minutes. Vial contents were poured into 50 ml screw-cap tubes. Vials were then rinsed with 6 ml hexane which was poured into the appropriate 50 ml tube. Tubes were shaken by hand, 10 ml H2 O was added, and tubes were shaken again. After phase separation, 2 ml of the upper (hexane) phase was removed to scintillation vials. Hexane was evaporated by a gentle air flow and the remaining lipids were resuspended in 10 ml Scinti Verse II. ^14 C was counted in a Packard liquid scintillation counter. Data are reported as CPM of ^14 C acetate incorporated into total lipids.

Rat Adipose Tissue = assay: Stimulation of lipolysis (glycerol production) in chopped rat adipose tissue; format: cell-based; conditions: Rattus norvegicus, 2 h
Protocol: as §1
as §3, with “York). […]” for “York).”

[5] = tested on: Isolated Swine Adipocytes; assay: Stimulation of lipolysis (glycerol production) in isolated swine adipocytes; format: cell-based; conditions: Sus scrofa, Adipocyte, 2 h
Protocol: as §1, §2, §3

[6] = Toxicity (general statement)
[7] = Growth, feed conversion and carcass composition of broilers raised in floor pens for 7 weeks; format: in vivo; conditions: 7 weeks
Protocol: Compound V (bitolterol) was compared to clenbuterol for effects on growth, feed conversion and carcass composition of broilers raised in floor pens for 7 weeks. […] Bitolterol at the highest dose improved rate of gain 2.6% (P 0.01), feed conversion 3.8% (P 0.05) and carcass protein 4.9% (P 0.10).
Clenbuterol at 0.5 ppm in the diet was administered for 7 weeks to one group and only during the last 4 weeks to another group. […] Clenbuterol given for 7 weeks improved feed conversion 3.5% (P 0.05) and appeared to improve (not significant) rate of gain 0.4%, carcass weight 0.7% and carcass protein 4.0% and to decrease (not significant) carcass fat 7.1%.

[8] = Test 1, 0.01 μM, read-out: percent increase compared to control, glycerol production
[9] = Test 1, read-out: percent increase compared to control, glycerol production
[10] = read-out: percent increase compared to control, glycerol production, Test 1
[11] = read-out: percent increase compared to control, glycerol production, Test 2

Structure (SMILES) | Gain ([1]; Test 1, control 7.3) | Feed Intake ([1]; Test 1, control 18.6) | Weight ([1]; Test 1, control 191.8) | Carcass Composition % of Change over Control, Fat ([1]; Test 1) | Carcass Composition % of Change over Control, Protein ([1]; Test 1) | activity in all species under consideration [2] | activation at 0.01 µM [3, 8] | activation at 0.05 µM [3, 9] | inhibition at 0.01 µM [4] | inhibition at 0.05 µM [4] | inhibition at 0.25 µM [4] | antilipogenic activity relative to clenbuterol [4] | antilipogenic activity relative to isoproterenol [4] | activation at 0.01 µM (Rat Adipose Tissue; [9]) | activation at 0.05 µM (Rat Adipose Tissue; [9]) | activation at 0.25 µM (Rat Adipose Tissue; [9]) | activation at 0.01 µM [5, 9] | activation at 0.05 µM [5, 9] | activation at 0.25 µM [5, 9] | other results
CC(C)(Cc1ccccc1)NCC(O)c1ccc(O)c(NS(C)(=O)=O)c1 (centres unmarked) [I, Zinterol] | 7.8 g/day | 19.2 g/day | 199.1 g | -10.4% | 7.3% | high activity in all species under consideration | 730% | 960% | 45.2% | 61.3% | 66% | greater than 125 times | five times | 90% | 129% | 281% | 87% | 100% | 53% | –
Cc1ccc(C(=O)Oc2ccc(C(O)CNC(C)(C)C)cc2OC(=O)c2ccc(C)cc2)cc1 (centres unmarked) [Compound V, Bitolterol] | 7.3 g/day | 18.7 g/day | 192.2 g | -4.3% | 3.1% | high activity in all species under consideration | – | 435% | 0% | 34% | 64.6% | – | – | 17% | 33% | 111% | 7% | 47% | 147% | level of toxicity [6]: very low level of toxicity; level of activity ([2]; in vivo): high level of activity; percent increase compared to control, glycerol production ([3]; Test 1, 0.01 μM): inactive; carcass fat (in words) ([7]; 0.5, 1.0 and 2.0 ppm in diet): did not reduce carcass fat; rate of gain, feed conversion and carcass protein, dose response ([7]; 0.5, 1.0 and 2.0 ppm in diet): improved rate of gain, feed conversion and carcass protein in a dose-related manner; improvement of rate of gain ([7]; 2.0 ppm in diet (highest dose), P 0.01): 2.6%; improvement of feed conversion ([7]; 2.0 ppm in diet (highest dose), P 0.05): 3.8%; improvement of carcass protein ([7]; 2.0 ppm in diet (highest dose), P 0.10): 4.9%; responses compared with clenbuterol at 0.5 ppm ([7]; 2.0 ppm in diet): better than those observed with clenbuterol at 0.5 ppm
CC(CCc1ccccc1)NCC(O)c1ccc(N)nc1 (centres unmarked) [IV] | – | – | – | – | – | high activity in all species under consideration | 820% | – | 33.7% | 54.3% | 63.2% | greater than 125 times | five times | 114% | 219% | 334% | 260% | 333% | 80% | Gain ([1]; Test 2, control 7.5): 8.4 g/day; Feed Intake ([1]; Test 2, control 19.3): 20.7 g/day; Weight ([1]; Test 2, control 202.3): 214.7 g; Carcass Composition % of Change over Control, Fat ([1]; Test 2): -16.1%; Carcass Composition % of Change over Control, Protein ([1]; Test 2): 5.0%
COc1ccc(CC(C)NCC(O)c2ccc(O)c(NC=O)c2)cc1 (centres unmarked) [IX, Formoterol] | 7.9 g/day | 19.1 g/day | 199.4 g | -10.4% | 10.6% | high activity in all species under consideration | – | – | – | – | – | – | – | – | – | – | – | – | – | activation at 0.01 µM ([3]; read-out: percent increase compared to control, glycerol production, Test 1, 0.01 μM): 675%; activation at 0.05 µM [3, 10]: 695%; activation at 0.01 µM (Rat Adipose Tissue; [10]): 42%; activation at 0.05 µM (Rat Adipose Tissue; [10]): 91%; activation at 0.25 µM (Rat Adipose Tissue; [10]): 258%; activation at 0.01 µM (Rat Adipose Tissue; [11]): 16%; activation at 0.05 µM (Rat Adipose Tissue; [11]): 70%; activation at 0.25 µM (Rat Adipose Tissue; [11]): 145%; activation at 0.01 µM [5, 10]: 207%; activation at 0.05 µM [5, 10]: 267%; activation at 0.25 µM [5, 10]: 187%; activation at 0.01 µM [5, 11]: 340%; activation at 0.05 µM [5, 11]: 600%; activation at 0.25 µM [5, 11]: 844%
C[C@H](CCc1ccccc1)NC[C@H](O)c1ccc(N)nc1 [α-R,1R compound] | – | – | – | – | – | – | – | – | – | – | – | – | – | – | – | – | – | – | – | activity compared with the other optical isomers of compound IV ([2]; in vivo): significantly more active than the most active of the other isomers
